Literature values in patent US20120121615A1, “ALANINYL MAYTANSINOL ANTIBODY CONJUGATES” (priority 2010, published 2012).

COc1cc2cc(c1Cl)N(C)C(=O)C[C@H](OC(=O)[C@H](C)N(C)C(C)=O)[C@]1(C)O[C@H]1[C@H](C)[C@@H]1C[C@@](O)(NC(=O)O1)[C@H](OC)/C=C/C=C(\C)C2 [maytansine]
dose-limiting toxicity (DLT) (2.0 mg/m^2 every 3 weeks, single dose or 3 consecutive days): gastrointestinal, consisting of nausea, vomiting, and diarrhea
activity in the clinic (at doses that could be safely delivered): modest
